In publication PMC4759042, “The D‐amino acid transport by the invertebrate SLC6 transporters KAAT1 and CAATCH1 from Manduca sexta” (Physiological Reports, 2016):

Key:
CAATCH1 (msCAATCH1) [1] = biological target: T1, CAATCH1 (msCAATCH1) (Manduca sexta, UniProt Q9U5A9); assay: two-electrode voltage clamp in oocytes, transport current; type: cell-based; conditions: NaCl 98 mmol/L, pH 7.6, -60 mV
T1 construct: full-length transporter from cRNA in Xenopus laevis oocytes
T1 sequence (Q9U5A9 1-633): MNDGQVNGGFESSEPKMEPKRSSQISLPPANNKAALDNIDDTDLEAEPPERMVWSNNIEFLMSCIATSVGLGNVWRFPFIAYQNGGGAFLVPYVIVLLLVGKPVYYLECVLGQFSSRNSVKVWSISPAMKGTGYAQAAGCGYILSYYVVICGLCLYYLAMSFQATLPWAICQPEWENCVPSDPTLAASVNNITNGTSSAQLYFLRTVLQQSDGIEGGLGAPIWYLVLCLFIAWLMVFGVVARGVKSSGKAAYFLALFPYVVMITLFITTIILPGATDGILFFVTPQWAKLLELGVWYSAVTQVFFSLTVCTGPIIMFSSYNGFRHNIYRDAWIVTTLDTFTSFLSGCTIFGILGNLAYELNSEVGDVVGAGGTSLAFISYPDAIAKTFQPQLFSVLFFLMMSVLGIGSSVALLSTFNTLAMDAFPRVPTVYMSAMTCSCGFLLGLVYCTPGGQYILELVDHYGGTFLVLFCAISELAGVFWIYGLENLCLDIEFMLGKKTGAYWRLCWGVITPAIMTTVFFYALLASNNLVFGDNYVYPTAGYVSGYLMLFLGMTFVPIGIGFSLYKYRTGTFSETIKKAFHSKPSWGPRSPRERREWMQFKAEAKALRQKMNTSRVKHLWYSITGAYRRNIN

KAAT1 (msKAAT1) = biological target: T2, KAAT1 (msKAAT1) (Manduca sexta, UniProt O76188); assay: as above; type: cell-based; conditions: NaCl 98 mmol/L, pH 7.6, -60 mV; main transport site, up to 300 μmol/L
T2 construct: full-length transporter from cRNA in Xenopus laevis oocytes
T2 sequence (O76188 1-634): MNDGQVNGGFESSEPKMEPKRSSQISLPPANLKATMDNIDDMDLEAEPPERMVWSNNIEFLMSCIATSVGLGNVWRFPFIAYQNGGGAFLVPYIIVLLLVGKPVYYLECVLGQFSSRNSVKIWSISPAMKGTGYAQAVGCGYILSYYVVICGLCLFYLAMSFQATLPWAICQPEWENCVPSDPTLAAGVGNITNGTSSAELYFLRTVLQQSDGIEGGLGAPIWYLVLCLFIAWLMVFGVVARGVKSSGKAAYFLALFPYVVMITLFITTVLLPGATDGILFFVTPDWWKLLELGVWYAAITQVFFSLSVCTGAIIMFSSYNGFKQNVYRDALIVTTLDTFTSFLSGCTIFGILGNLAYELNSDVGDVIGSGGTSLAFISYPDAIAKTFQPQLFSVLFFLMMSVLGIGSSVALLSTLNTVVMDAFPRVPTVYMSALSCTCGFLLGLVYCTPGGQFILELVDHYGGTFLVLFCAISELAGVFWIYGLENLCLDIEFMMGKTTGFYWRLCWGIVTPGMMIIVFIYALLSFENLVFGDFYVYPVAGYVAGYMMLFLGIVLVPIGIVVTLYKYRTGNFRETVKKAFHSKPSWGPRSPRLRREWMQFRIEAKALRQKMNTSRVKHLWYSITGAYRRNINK

CAATCH1 (msCAATCH1) [2] = biological target: T1, CAATCH1 (msCAATCH1); assay: two-electrode voltage clamp in oocytes, block of leak current; type: cell-based; conditions: NaCl 98 mmol/L, pH 7.6, -60 mV; blocker, not transported
[3] = substrate: CC(C)C[C@H](N)C(=O)O; assay: two-electrode voltage clamp in oocytes, transport current; type: cell-based, Manduca sexta; conditions: NaCl 98 mmol/L, pH 7.6, -60 mV, 20-25 °C

CC(C)C[C@@H](N)C(=O)O [D‐leucine]
two-electrode voltage clamp in oocytes, transport current (CAATCH1 (msCAATCH1) [1]; 30-1000 μmol/L): The amplitude of the response to D‐leucine increases with the substrate concentration | two-electrode voltage clamp in oocytes, transport current (KAAT1 (msKAAT1)): increasing concentrations of D‐leucine to the oocyte caused progressively larger transport currents

N[C@H](CO)C(=O)O [D‐serine]
two-electrode voltage clamp in oocytes, transport current (CAATCH1 (msCAATCH1) [1]): the D‐enantiomer gives rise to a large current

CC(C)C[C@H](N)C(=O)O [L‐leucine]
two-electrode voltage clamp in oocytes, block of leak current (CAATCH1 (msCAATCH1) [2]): L‐leucine produces an apparent outward current, actually representing a block of the leak current

N[C@@H](CO)C(=O)O [L‐serine]
two-electrode voltage clamp in oocytes, block of leak current (CAATCH1 (msCAATCH1) [2]): has a blocking effect similar to that of L‐leucine

B1: KAAT1 (msKAAT1) (Manduca sexta) (protein)
chain: T2 sequence (O76188 1-634)
notes: full-length transporter from cRNA in Xenopus laevis oocytes
K0.5 [3]: 10 µmol/L
